Results published in patent US9029337B2, “Modulation of factor 7 expression” (Isis Pharmaceuticals, Inc., priority 2007, dated 2015).
Strand notation (5' to 3'): a small letter for the sugar, then the base; units joined by * are phosphorothioate-linked, units joined directly phosphodiester-linked; [ ] holds rarer units or linkages, { } end groups; capitals alone tell only the bases. e = 2'-O-(2-methoxyethyl) (MOE); [5mC] = 5-methylcytosine; d = 2'-deoxy (DNA)

Legend:
BALB/c mice = assay: Tail bleeding assay; assay type: in vivo, mouse; details: mouse, in vivo
Experimental: (§1) Mice not receiving treatment with FeCl3 solution were evaluated in a tail bleeding chamber. Mice were placed into the bleeding chamber two days after the final treatment of ISIS 403102 or PBS. Mice were anesthetized in the chamber with isofluorane and a small piece of tail (approximately 4 mm from the tip) was cut with sterile scissors. The cut tail was immediately placed in a 15 mL Falcon tube filled with approximately 10 mL of 0.9% NaCl buffer solution warmed to 37° C. The blood was collected over the course of 40 minutes. The saline filled tubes were weighed both before and after bleeding.
Tail-bleeding was measured to observe whether treatment with ISIS 403102 or warfarin causes internal hemorrhage in mice. ISIS 403102 and warfarin (Coumadin®) were evaluated in the tail bleeding assay. Six groups of BALB/c mice were treated with 1.25 mg/kg, 2.5 mg/kg, 5 mg/kg, 10 mg/kg, 20 mg/kg, or 40 mg/kg of ISIS 403102, administered subcutaneously twice a week for 3 weeks. An additional 6 groups of BALB/c mice were treated with 0.5 mg/kg, 1 mg/kg, 2 mg/kg, 3 mg/kg, 4 mg/kg, and 5 mg/kg of warfarin, administered intraperioneally daily for 6 days. A separate control group of BALB/c mice was treated with PBS, administered subcutaneously twice a week for 3 weeks.
as §1, with “Two” for “Mice not receiving treatment with FeCl3 solution were evaluated in a tail bleeding chamber. Mice were placed into the bleeding chamber two”, “403102, warfarin,” for “403102”, “PBS, mice were placed in a tail bleeding chamber.” for “PBS.”
ISIS 403102 and Apixaban were evaluated in BALB/c mice. In a first group of BALB/c mice, 40 mg/kg of ISIS 403102 was administered subcutaneously twice a week for 3 weeks. An additional 3 groups of BALB/c mice were treated with 5 mg/kg and 10 mg/kg of Apixaban, administered in a single intraperitoneal dose, and 10 mg/kg of Apixaban administered as a single subcutaneous dose. A control group of BALB/c mice was treated with PBS, administered subcutaneously twice a week for 3 weeks.
as §1, with “Two” for “Mice not receiving treatment with FeCl3 solution were evaluated in a tail bleeding chamber. Mice were placed into the bleeding chamber two”, “PBS, mice were placed in a tail bleeding chamber. Mice from the groups treated with Apixaban were analyzed 30 minutes after the single dose.” for “PBS.”, “weighed” for “weighed both”

human Factor 7 mRNA [1] = assay: Dose-dependent antisense inhibition of human Factor 7 in HepB3 cells, lipofectin; assay type: cell-based; details: HepB3 cells, approx. 16 hours (Table 14)
How it was run: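 HepB3 cells (4,000/well) lipofectin-transfected with antisense oligonucleotide at 3.125 or 6.25 up to 100 nM for ~16 h. Factor 7 mRNA measured by real-time RT-PCR with primer probe set RTS 2927, adjusted to RIBOGREEN total RNA; expressed as percent inhibition versus untreated control cells.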

human Factor 7 mRNA [2] = assay: Antisense inhibition of human Factor 7 mRNA in HepB3 cells, 50 nM antisense oligonucleotide, lipofectin; assay type: cell-based; details: gapmers targeted to nucleobases 4868 to 4899 of SEQ ID NO: 1, Table 8
How it was run: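 Percent inhibition, untreated cells as reference: derived from RNA collected about 24 hours post-transfection of 4,000-cell wells, with the human RTS 2927 primer probe set and adjustment for total RNA content (RIBOGREEN®).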

human Factor 7 mRNA [3] = assay: Dose-dependent antisense inhibition of human Factor 7 in HepB3 cells, electroporation; assay type: cell-based
How it was run: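 HepB3 cells, 20,000/well, electroporated with gapmers at 3.125–100 μM; about 16 h treatment. Factor 7 mRNA by qRT-PCR with primer probe set RTS 2927, normalized to RIBOGREEN total RNA; percent inhibition versus untreated cells.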

[4] = 3.125 μM, approx. 16 hours (Table 15, Example 7)
[5] = 3.125 μM, approx. 16 hours (Table 16, Example 8 confirmation)
[6] = 6.25 μM, approx. 16 hours (Table 15, Example 7)
[7] = 6.25 μM, approx. 16 hours (Table 16, Example 8 confirmation)
[8] = 12.5 μM, approx. 16 hours (Table 15, Example 7)
[9] = 12.5 μM, approx. 16 hours (Table 16, Example 8 confirmation)
[10] = 25 μM, approx. 16 hours (Table 15, Example 7)
[11] = 25 μM, approx. 16 hours (Table 16, Example 8 confirmation)
[12] = 50 μM, approx. 16 hours (Table 15, Example 7)
[13] = 50 μM, approx. 16 hours (Table 16, Example 8 confirmation)
[14] = 100 μM, approx. 16 hours (Table 15, Example 7)
[15] = 100 μM, approx. 16 hours (Table 16, Example 8 confirmation)

Compound | percent inhibition of Factor 7 mRNA, relative to untreated control cells (human Factor 7 mRNA [1]; 3.125 nM) [%] | percent inhibition of Factor 7 mRNA, relative to untreated control cells (human Factor 7 mRNA [1]; 12.5 nM) [%] | percent inhibition of Factor 7 mRNA, relative to untreated control cells (human Factor 7 mRNA [1]; 25 nM) [%] | percent inhibition of Factor 7 mRNA, relative to untreated control cells (human Factor 7 mRNA [1]; 50 nM) [%] | percent inhibition of Factor 7 mRNA, relative to untreated control cells (human Factor 7 mRNA [1]; 100 nM) [%] | percent inhibition of Factor 7 mRNA, relative to untreated control cells (human Factor 7 mRNA [1]) [%] | % Inhibition of human Factor 7 mRNA levels (human Factor 7 mRNA [2]) [%] | percent inhibition of Factor 7 mRNA, relative to untreated control cells (human Factor 7 mRNA [3]; [4]) [%] | percent inhibition of Factor 7 mRNA, relative to untreated control cells (human Factor 7 mRNA [3]; [5]) [%] | percent inhibition of Factor 7 mRNA, relative to untreated control cells (human Factor 7 mRNA [3]; [6]) [%] | percent inhibition of Factor 7 mRNA, relative to untreated control cells (human Factor 7 mRNA [3]; [7]) [%] | percent inhibition of Factor 7 mRNA, relative to untreated control cells (human Factor 7 mRNA [3]; [8]) [%] | percent inhibition of Factor 7 mRNA, relative to untreated control cells (human Factor 7 mRNA [3]; [9]) [%] | percent inhibition of Factor 7 mRNA, relative to untreated control cells (human Factor 7 mRNA [3]; [10]) [%] | percent inhibition of Factor 7 mRNA, relative to untreated control cells (human Factor 7 mRNA [3]; [11]) [%] | percent inhibition of Factor 7 mRNA, relative to untreated control cells (human Factor 7 mRNA [3]; [12]) [%] | percent inhibition of Factor 7 mRNA, relative to untreated control cells (human Factor 7 mRNA [3]; [13]) [%] | percent inhibition of Factor 7 mRNA, relative to untreated control cells (human Factor 7 mRNA [3]; [14]) [%] | percent inhibition of Factor 7 mRNA, relative to untreated control cells (human Factor 7 mRNA [3]; [15]) [%] | further results
403102 (antisense CCATAGAACAGCTTCACAGG; chemistry not given here) [compound 403102] | – | – | – | – | – | – | – | – | – | – | – | – | – | – | – | – | – | – | – | Blood (g), tail bleeding (BALB/c mice; sc, 25 mg/kg): 0.06 g; Blood (g), tail bleeding (BALB/c mice; sc, 37.5 mg/kg): 0.06 g; Blood (g), tail bleeding (BALB/c mice; sc, 50 mg/kg): 0.10 g
422292 (antisense eG*eT*dT*d[5mC]*dT*dG*d[5mC]*dA*dG*dG*dA*dG*d[5mC]*dG*dG*e[5mC]*e[5mC]*eT*eA*eA) [compound 422292] | 13 | 44 | 63 | 81 | 83 | 21 | 75 | 36 | 31 | 25 | 40 | 47 | 68 | 59 | 75 | 75 | 82 | 86 | 83 | –
422295 (antisense e[5mC]*eG*dA*dG*dT*dT*d[5mC]*dT*dG*d[5mC]*dA*dG*dG*dA*dG*e[5mC]*eG*eG*e[5mC]*e[5mC]) [compound 422295] | 17 | 44 | 64 | 80 | 85 | 22 | 74 | 10 | – | 8 | – | 37 | – | 58 | – | 68 | – | 80 | – | –
422296 (antisense e[5mC]*e[5mC]*dG*dA*dG*dT*dT*d[5mC]*dT*dG*d[5mC]*dA*dG*dG*dA*eG*e[5mC]*eG*eG*e[5mC]) [compound 422296] | 21 | 39 | 67 | 78 | 82 | 27 | 74 | 62 | 47 | 40 | 44 | 56 | 70 | 56 | 78 | 82 | 80 | 84 | 82 | –
COc1ccc(-n2nc(C(N)=O)c3c2C(=O)N(c2ccc(N4CCCCC4=O)cc2)CC3)cc1 [apixaban, Apixaban] | – | – | – | – | – | – | – | – | – | – | – | – | – | – | – | – | – | – | – | Blood (g), tail bleeding (BALB/c mice; BALB/c, ip, 5 mg/kg, 30 min): 0.22 g; Blood (g), tail bleeding (BALB/c mice; BALB/c, ip, 10 mg/kg, 30 min): 0.58 g; Blood (g), tail bleeding (BALB/c mice; BALB/c, sc, 10 mg/kg, 30 min): 0.04 g; bleeding compared to PBS treated mice (BALB/c mice; ip, 5 mg/kg): same amount of bleeding as PBS treated mice; bleeding compared to PBS treated mice (BALB/c mice; ip, 10 mg/kg): increased bleeding; bleeding compared to PBS treated mice (BALB/c mice; sc, 10 mg/kg): less bleeding than PBS mice
